target: T1, dopamine-D4 receptor (Homo sapiens, UniProt P21917); assay: [3H]-spiperone binding at the D4 receptor, membranes of D4-CHO cells; conditions: crude membranes from D4-CHO cells, 200 pM [3H]-spiperone, room temperature, 90 minutes
T1 construct: expressed in transfected cells; host or cells: CHO (Chinese Hamster Ovary) cells, D4-CHO; crude membranes
Experimental: Compounds of formula I were characterized by their binding behavior at the D4 receptor.
CHO cells (Chinese Hamster Ovary) were used in the test. Crude membranes were isolated by ultracentrifugation from D4 -CHO and D2 -CHO cells and were stored at -80° C. After thawing and homogenizing in a buffer solution (50 mM Tris, 1 mM EDTA, 5 mM KCl, 1.5 mM CaCl2, 4 mM MgCl2, pH 7.4) they were incubated at room temperature for 90 minutes with 200 pM [3H]-spiperone and an increasing concentration (1×10^-11 M to 1×10^-4 M) of test compound. A non-specific binding was established by incubating in the presence of 1×10^-5 M (+)-butaclamol. The unbound radioligand was removed by filtration through a GF/C glass filter and the bound radioactivity was determined by scintillation in a Packard TopCount.
The calculation of the value was effected with ligand.

T1 sequence (P21917 whole entry): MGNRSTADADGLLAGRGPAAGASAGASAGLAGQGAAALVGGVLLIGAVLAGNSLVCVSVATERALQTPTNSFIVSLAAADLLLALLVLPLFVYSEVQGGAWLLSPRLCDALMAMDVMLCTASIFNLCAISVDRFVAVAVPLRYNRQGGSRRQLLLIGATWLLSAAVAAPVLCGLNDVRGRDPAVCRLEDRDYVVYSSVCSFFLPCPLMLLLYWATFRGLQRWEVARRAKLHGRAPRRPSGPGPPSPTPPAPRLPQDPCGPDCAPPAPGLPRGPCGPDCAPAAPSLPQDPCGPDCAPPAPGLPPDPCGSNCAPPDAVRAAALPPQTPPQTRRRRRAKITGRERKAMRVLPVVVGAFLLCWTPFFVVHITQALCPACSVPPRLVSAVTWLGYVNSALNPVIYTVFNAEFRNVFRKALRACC

SMILES | Ki [nM]
Cc1cccc(OCC(O)CN2CC=C(c3ccccc3)CC2)c1 (centres unmarked) [Compound 1, 1-(4-Phenyl-3,6-dihydro-2H-pyridin-1-yl)-3-m-tolyloxy-5-propan-2-ol] | < 100
Cc1ccccc1OCC(O)CN1CC=C(c2ccccc2)CC1 (centres unmarked) [Compound 2, 1-(4-Phenyl-3,6-dihydro-2H-pyridin-1-yl)-3-o-tolyloxy-propan-2-ol] | < 100
OC(COc1cccc(C(F)(F)F)c1)CN1CC=C(c2ccccc2)CC1 (centres unmarked) [Compound 3, 1-(4-Phenyl-3,6-dihydro-2H-pyridin-1-yl)-3-(3-trifluoro-methylphenoxy)-propan-2-ol] | < 100
OCc1ccccc1OCC(O)CN1CC=C(c2ccccc2)CC1 (centres unmarked) [Compound 4, 1-(2-Hydroxymethyl-phenoxy)-3-(4-phenyl-3,6-dihydro-2H-pyridin-1-yl)-propan-2-ol] | < 100
COc1ccccc1OCC(O)CN1CC=C(c2ccccc2)CC1 (centres unmarked) [Compound 5, 1-(2-Methoxy-phenoxy)-3-(4-phenyl-3,6-dihydro-2H-pyridin-1-yl)-propan-2-ol] | < 100
CC(=O)Nc1ccccc1OCC(O)CN1CC=C(c2ccccc2)CC1 (centres unmarked) [Compound 6, N-[2-[2-Hydroxy-3-(4-phenyl-3,6-dihydro-2H-pyridin-1-yl)-propoxy]-phenyl]-acetamide] | < 100
CC(=O)c1ccccc1OCC(O)CN1CC=C(c2ccccc2)CC1 (centres unmarked) [Compound 7, 1-[2-[2-Hydroxy-3-(4-phenyl-3,6-dihydro-2H-pyridin-1-yl)-propoxy]-phenyl]-ethanone] | < 100
Cc1ccc(OCC(O)CN2CC=C(c3ccccc3)CC2)cc1C (centres unmarked) [Compound 8, 1-(3,4-Dimethyl-phenoxy)-3-(4-phenyl-3,6-dihydro-2H-pyridin-1-yl)-propan-2-ol] | < 100
CC(=O)Nc1cc(Cl)ccc1OCC(O)CN1CC=C(c2ccccc2)CC1 (centres unmarked) [Compound 9, N-[5-Chloro-2-[2-hydroxy-3-(4-phenyl-3,6-dihydro-2H-pyridin-1-yl)-propoxy]-phenyl]acetamide] | < 100
OC(COc1cccc2ccccc12)CN1CC=C(c2ccccc2)CC1 (centres unmarked) [Compound 10, 1-(Naphthalen-1-yloxy)-3-(4-phenyl-3,6-dihydro-2H-pyridin-1-yl)-propan-2-ol] | < 100
OC(COc1cccc(C(F)(F)F)c1)CN1CC=C(c2ccc(F)cc2)CC1 (centres unmarked) [Compound 11, 1-[4-(4-Fluoro-phenyl)-3,6-dihydro-2H-pyridin-1-yl)-3-(3-trifluoromethyl-phenoxy)-propan-2-ol] | < 100
NC(=O)c1ccccc1OCC(O)CN1CC=C(c2ccc(F)cc2)CC1 (centres unmarked) [Compound 12, 2-[3-[4-(4-Fluoro-phenyl)-3,6-dihydro-2H-pyridinol-yl]-2-hydroxy-propoxy]-benzamide] | < 100
NC(=O)Nc1ccccc1OCC(O)CN1CC=C(c2ccc(F)cc2)CC1 (centres unmarked) [Compound 13, [2-[3-[4-(4-Fluoro-phenyl)-3,6-dihydro-2H-pyridin-1-yl]-2-hydroxy-propoxy]-phenyl]-urea] | < 100
CC(=O)Nc1ccccc1OCC(O)CN1CC=C(c2ccc(Cl)cc2)CC1 (centres unmarked) [Compound 14] | < 100
